Laboratory results: patent publication US8431706B2, “1,2,3,4-tetrahydroqinoline derivative useful for the treatment of diabetes” (Eli Lilly and Company, priority 2011, dated 2013)
pIC50: −log10 of the molar value.

Target: T1, PPARδ (Homo sapiens, UniProt Q03181)
T1 construct: made in house; host or cells: HEK293 (cell lysates)
T1 sequence (Q03181 1-441): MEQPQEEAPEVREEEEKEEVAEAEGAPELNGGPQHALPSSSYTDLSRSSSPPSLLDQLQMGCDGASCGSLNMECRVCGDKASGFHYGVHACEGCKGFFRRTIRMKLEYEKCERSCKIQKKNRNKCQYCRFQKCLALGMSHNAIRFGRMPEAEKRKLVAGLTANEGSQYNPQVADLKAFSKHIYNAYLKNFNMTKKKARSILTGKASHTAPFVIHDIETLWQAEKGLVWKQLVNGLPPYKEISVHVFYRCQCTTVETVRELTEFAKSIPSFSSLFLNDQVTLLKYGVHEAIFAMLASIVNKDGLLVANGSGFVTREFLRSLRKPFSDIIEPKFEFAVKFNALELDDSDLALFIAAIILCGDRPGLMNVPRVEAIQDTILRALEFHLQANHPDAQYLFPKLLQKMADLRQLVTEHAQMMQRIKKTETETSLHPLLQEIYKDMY
T1 sequence (P19793 1-462 partner): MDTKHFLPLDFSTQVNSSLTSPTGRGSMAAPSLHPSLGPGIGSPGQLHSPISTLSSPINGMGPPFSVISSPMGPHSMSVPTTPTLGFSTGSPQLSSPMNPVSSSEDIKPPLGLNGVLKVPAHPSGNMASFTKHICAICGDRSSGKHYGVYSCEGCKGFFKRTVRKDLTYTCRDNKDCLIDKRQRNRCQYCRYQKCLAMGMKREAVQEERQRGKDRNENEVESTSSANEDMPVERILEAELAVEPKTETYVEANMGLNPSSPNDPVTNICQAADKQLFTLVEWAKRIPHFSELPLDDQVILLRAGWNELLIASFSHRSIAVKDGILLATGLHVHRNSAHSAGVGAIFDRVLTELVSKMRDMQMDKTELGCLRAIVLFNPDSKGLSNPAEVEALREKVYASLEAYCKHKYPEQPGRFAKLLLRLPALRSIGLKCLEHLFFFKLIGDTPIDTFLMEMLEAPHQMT
Assay: PPARδ binding assay (SPA)
Experimental: Because GPR40 is known to be activated by ligands to PPARγ, the exemplified compound is examined in PPARα, PPARδ, and PPARγ binding and functional assays to determine the selectivity of the compound of Example 1 for GPR40.
Binding affinities of the compound for the PPAR α, δ, and γ receptors are assessed using Scintillation Proximity Assay (SPA) technology. Biotinylated oligonucleotide Direct Repeat 2 (DR2) is used for binding the receptors to Yttrium silicate streptavidin-coated SPA beads. PPAR α, δ, γ and retinoid X receptor (RXR) α are over expressed in HEK293 cells, and cell lysates containing the specific receptors are used in the individual assays. The DR2 is attached to the SPA beads over a 30 minute period in a binding buffer containing 10 mM HEPES pH 7.8, 80 mM KCl, 0.5 mM MgCl2, 1 mM DTT, 0.5% 3[(3-cholamidopropyl)dimethylammonio]-propanesulfonic acid (CHAPS), and 4.4% bovine serum. […] Non-specific binding is determined in the presence of 10,000 nM of the unlabeled PPAR α/δ dual agonist reference compound for the alpha and delta receptor assays and the PPARγ agonist reference compound for the gamma receptor assay. The binding reaction (100 μl per well in a 96 well [Costar 3632] plate) is incubated for 10 h and counted disintegration per minutes (dpm) on a Wallac Microbeta. Receptor binding affinity (IC50) for the compound is determined by fitting an 11 point concentration-response curve with a 4-parameter logistic equation. Ki is determined from the IC50 using the Cheng-Prussoff equation and Kd determined by saturation binding. […]

- binding (concentrations up to 10 μM): no binding is detected
- pIC50 (tested up to 30 μM, read-out: relative IC50): < 5.00
- PPAR binding values (with 10 μM concentrations of test compound): greater than 1000 nM
SMILES: CC#C[C@@H](CC(=O)O)c1ccc(OCc2ccc(CN3CCCc4cccc(OC)c43)s2)cc1 [Example 1, (3S)-3-[4-[[5-[(8-Methoxy-3,4-dihydro-2H-quinolin-1-yl)methyl]-2-thienyl]methoxy]phenyl]hex-4-ynoic acid]
